From patent publication US20260258032A1, “TYROSINE KINASE 2 INHIBITORS AND USES THEREOF” (BIOGEN MA INC., priority 2022, published 2026)
Structures can show the parent of a compound that is named as a salt.

Assays:
[1] = tested on: Tyk2 kinase activity on STAT4; assay: pSTAT4 cell assay (MSD, NK92 cells); format: cell-based; conditions: compounds 1 hr
Outline: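 IC50 values derive from 4-parameter logistic fits of normalized percent activity against log compound concentration. Phospho-STAT was measured by MSD with anti-STAT4 antibodies after 15 min of 30 ng/mL IL2 in serum-starved NK92 cells pretreated 1 hr with compound.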

JH2 domain of human Tyk2 = target: T1, JH2 domain of human Tyk2 (Homo sapiens, UniProt P29597); assay: JH2 biochemical assay (TR-FRET probe displacement); format: binding
T1 construct: 10×His-tagged TYK2 JH2 domain (amino acid 575-876)
T1 sequence (P29597 575-876): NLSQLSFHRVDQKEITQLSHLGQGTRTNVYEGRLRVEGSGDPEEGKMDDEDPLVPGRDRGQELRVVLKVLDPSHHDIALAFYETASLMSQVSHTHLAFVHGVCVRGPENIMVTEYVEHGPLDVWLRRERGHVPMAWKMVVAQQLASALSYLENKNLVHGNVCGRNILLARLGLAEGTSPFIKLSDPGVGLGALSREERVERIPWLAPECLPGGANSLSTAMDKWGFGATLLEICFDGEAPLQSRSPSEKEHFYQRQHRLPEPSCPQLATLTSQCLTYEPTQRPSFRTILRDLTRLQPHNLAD
Outline: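 10×His-tagged human TYK2 JH2 (aa 575-876, 2 nM) incubated 60 min with 2 nM fluorescent probe, 0.1 nM Tb anti-His antibody and compound (10-point 3-fold series from […] top). TR-FRET 520/495 nm ratio, falling with probe displacement, normalized and fitted to a 4-parameter logistic for IC50.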

[2] = TR-FRET probe displacement, JH2 domain of human Tyk2

Compound | IC50 ([1]; stimulated 15 minutes) [nM] | IC50 (JH2 domain of human Tyk2; JH2 biochemical assay) [nM] | IC50 ([1]; then stimulated 15 minutes) [nM] | IC50 (JH2 domain of human Tyk2; [2]) [nM]
CC(=O)Nc1cc2c(cn1)C1(CC1)CN2c1cc(C)cc(OCC2CC2)n1 [Example 352, N-(1′-(6-(cyclopropylmethoxy)-4-methylpyridin-2-yl)-1′,2′-dihydrospiro[cyclopropane-1,3′-pyrrolo[3,2-c]pyridin]-6′-yl)acetamide trifluoroacetate] | ≥ 1000 | 100 to 1000 |  | 
CC(=O)Nc1cc2c(cn1)C1(CC1)CN2c1cc(N(C)C)nc(C(C)(F)F)n1 [Example 20, N-(1′-(2-(1,1-difluoroethyl)-6-(dimethylamino)pyrimidin-4-yl)-1′,2′-dihydrospiro[cyclopropane-1,3′-pyrrolo[3,2-c]pyridin]-6′-yl)acetamide] | 100 to 1000 | ≤ 10 |  | 
CC(=O)Nc1cc2c(cn1)C1(CC1)CN2c1cc(C)nc(N2CC(O)C2)n1 [Example 237, N-(1′-(2-(3-hydroxyazetidin-1-yl)-6-methylpyrimidin-4-yl)-1′,2′-dihydrospiro[cyclopropane-1,3′-pyrrolo[3,2-c]pyridin]-6′-yl)acetamide] | ≥ 1000 | 10 to 100 |  | 
CC(=O)Nc1cc2c(cn1)C1(CC1)CN2c1cc(C)nc(N2CC(C)(O)C2)n1 [Example 226, N-(1′-(2-(3-hydroxy-3-methylazetidin-1-yl)-6-methylpyrimidin-4-yl)-1′,2′-dihydrospiro[cyclopropane-1,3′-pyrrolo[3,2-c]pyridin]-6′-yl)acetamide] | ≥ 1000 | 10 to 100 |  | 
CC(=O)Nc1cc2c(cn1)C1(CC1)CN2c1cc(C)cc(N2CC(C#N)(C(F)F)C2)n1 [Example 202, N-(1′-(6-(3-cyano-3-(difluoromethyl)azetidin-1-yl)-4-methylpyridin-2-yl)-1′,2′-dihydrospiro[cyclopropane-1,3′-pyrrolo[3,2-c]pyridin]-6′-yl)acetamide] | ≥ 1000 | 10 to 100 |  | 
CC(=O)Nc1cc2c(cn1)C1(CC1)CN2c1cc(C)cc(OCC23CC(C)(CO2)C3)n1 [Example 349, N-(1′-(4-methyl-6-((4-methyl-2-oxabicyclo[2.1.1]hexan-1-yl)methoxy)pyridin-2-yl)-1′,2′-dihydrospiro[cyclopropane-1,3′-pyrrolo[3,2-c]pyridin]-6′-yl)acetamide] | ≥ 1000 | 100 to 1000 |  | 
CC(=O)Nc1cc2c(cn1)C1(CC1)CN2c1cc(-c2cnn(C(F)F)c2)nc(C(C)(F)F)n1 [Example 383, N-(1′-(2-(1,1-difluoroethyl)-6-(1-(difluoromethyl)-1H-pyrazol-4-yl)pyrimidin-4-yl)-1′,2′-dihydrospiro[cyclopropane-1,3′-pyrrolo[3,2-c]pyridin]-6′-yl)acetamide trifluoroacetate] |  |  | 10 to 100 | ≤ 10
CCS(=O)(=O)C1CN(c2cc(C)cc(N3CC4(CC4)c4cnc(NC(C)=O)cc43)n2)C1 [Example 204, N-(1′-(6-(3-(ethylsulfonyl)azetidin-1-yl)-4-methylpyridin-2-yl)-1′,2′-dihydrospiro[cyclopropane-1,3′-pyrrolo[3,2-c]pyridin]-6′-yl)acetamide] | ≥ 1000 | 100 to 1000 |  | 
COCCOc1ccnc(N2CC3(CC3)c3cnc(NC(C)=O)cc32)n1 [Example 99, N-(1′-(4-(2-methoxyethoxy)pyrimidin-2-yl)-1′,2′-dihydrospiro[cyclopropane-1,3′-pyrrolo[3,2-c]pyridin]-6′-yl)acetamide] | ≥ 1000 | 10 to 100 |  | 
CC(=O)Nc1cc2c(cn1)C1(CC1)CN2c1cc(C)nc(N2CCC(O)CC2)n1 [Example 232, N-(1′-(2-(4-hydroxypiperidin-1-yl)-6-methylpyrimidin-4-yl)-1′,2′-dihydrospiro[cyclopropane-1,3′-pyrrolo[3,2-c]pyridin]-6′-yl)acetamide] | ≥ 1000 | 100 to 1000 |  | 
CC(=O)Nc1cc2c(cn1)C1(CC1)CN2c1cc(C)cc(OCC(C)(F)F)n1 [Example 356, N-(1′-(6-(2,2-difluoropropoxy)-4-methylpyridin-2-yl)-1′,2′-dihydrospiro[cyclopropane-1,3′-pyrrolo[3,2-c]pyridin]-6′-yl)acetamide trifluoroacetate] | ≥ 1000 | 10 to 100 |  | 
CC(=O)Nc1cc2c(cn1)C1(CC1)CN2c1cc(C)cc(N2CC(C(F)F)C2)n1 [Example 201, N-(1′-(6-(3-(difluoromethyl)azetidin-1-yl)-4-methylpyridin-2-yl)-1′,2′-dihydrospiro[cyclopropane-1,3′-pyrrolo[3,2-c]pyridin]-6′-yl)acetamide trifluoroacetate] | ≥ 1000 | 10 to 100 |  | 
CC(=O)Nc1cc2c(cn1)C1(CC1)CN2c1cc(C)nc(OC2CC(C#N)C2)n1 (stereo not shown) [Example 375, N-(1′-(2-(3-cyanocyclobutoxy)-6-methylpyrimidin-4-yl)-1′,2′-dihydrospiro[cyclopropane-1,3′-pyrrolo[3,2-c]pyridin]-6′-yl)acetamide] |  |  | ≥ 1000 | 100 to 1000
CC(=O)Nc1cc2c(cn1)C1(CC1)CN2c1cc(C)nc(N(C)C)n1 [Example 116, N-(1′-(2-(dimethylamino)-6-methylpyrimidin-4-yl)-1′,2′-dihydrospiro[cyclopropane-1,3′-pyrrolo[3,2-c]pyridin]-6′-yl)acetamide] | ≥ 1000 | 10 to 100 |  | 
CC(=O)Nc1cc2c(cn1)C1(CC1)CN2c1cc(NC2CCOCC2)nc(C(C)(F)F)n1 [Example 155, N-(1′-(2-(1,1-difluoroethyl)-6-((tetrahydro-2H-pyran-4-yl)amino)pyrimidin-4-yl)-1′,2′-dihydrospiro[cyclopropane-1,3′-pyrrolo[3,2-c]pyridin]-6′-yl)acetamide] | 10 to 100 | ≤ 10 |  | 
CC(=O)Nc1cc2c(cn1)C1(CC1)CN2c1cc(C)cc(N2CC(F)C2)n1 [Example 195, N-(1′-(6-(3-fluoroazetidin-1-yl)-4-methylpyridin-2-yl)-1′,2′-dihydrospiro[cyclopropane-1,3′-pyrrolo[3,2-c]pyridin]-6′-yl)acetamide] | ≥ 1000 | 10 to 100 |  | 
CC(=O)Nc1cc2c(cn1)C1(CC1)CN2c1cc(N)nc(C(C)(F)F)n1 [Example 273, N-(1′-(6-amino-2-(1,1-difluoroethyl)pyrimidin-4-yl)-1′,2′-dihydrospiro[cyclopropane-1,3′-pyrrolo[3,2-c]pyridin]-6′-yl)acetamide trifluoroacetate] | 10 to 100 | ≤ 10 |  | 
COC(C)(C)COc1nc(C)cc(N2CC3(CC3)c3cnc(NC(C)=O)cc32)n1 [Example 373, N-(1′-(2-(2-methoxy-2-methylpropoxy)-6-methylpyrimidin-4-yl)-1′,2′-dihydrospiro[cyclopropane-1,3′-pyrrolo[3,2-c]pyridin]-6′-yl)acetamide] |  |  | ≥ 1000 | 100 to 1000
CC(=O)Nc1cc2c(cn1)C1(CC1)CN2c1cc(NCC2CCN2C)nc(C(C)(F)F)n1 (stereo not shown) [Example 174, N-(1′-(2-(1,1-difluoroethyl)-6-(((1-methylazetidin-2-yl)methyl)amino)pyrimidin-4-yl)-1′,2′-dihydrospiro[cyclopropane-1,3′-pyrrolo[3,2-c]pyridin]-6′-yl)acetamide] | ≥ 1000 | 10 to 100 |  | 
CC(=O)Nc1cc2c(cn1)C1(CC1)CN2c1cc(C)cc(-c2cnn(S(C)(=O)=O)c2)n1 [Example 258, N-(1′-(4-methyl-6-(1-(methylsulfonyl)-1H-pyrazol-4-yl)pyridin-2-yl)-1′,2′-dihydrospiro[cyclopropane-1,3′-pyrrolo[3,2-c]pyridin]-6′-yl)acetamide trifluoroacetate] | 100 to 1000 | 10 to 100 |  | 
CC(=O)Nc1cc2c(cn1)C1(CC1)CN2c1cc(C)cc(OC2CCCC2)n1 [Example 354, N-(1′-(6-(cyclopentyloxy)-4-methylpyridin-2-yl)-1′,2′-dihydrospiro[cyclopropane-1,3′-pyrrolo[3,2-c]pyridin]-6′-yl)acetamide trifluoroacetate] | ≥ 1000 | 100 to 1000 |  | 
CC(=O)Nc1cc2c(cn1)C1(CC1)CN2c1cc(C)cc(N2CCOCC2)n1 [Example 206, N-(1′-(4-methyl-6-morpholinopyridin-2-yl)-1′,2′-dihydrospiro[cyclopropane-1,3′-pyrrolo[3,2-c]pyridin]-6′-yl)acetamide] | 100 to 1000 | 10 to 100 |  | 
CC(=O)Nc1cc2c(cn1)C1(CC1)CN2c1cc(C)cc(OC2CCOC2)n1 (stereo not shown) [Example 339, N-(1′-(4-methyl-6-((tetrahydrofuran-3-yl)oxy)pyridin-2-yl)-1′,2′-dihydrospiro[cyclopropane-1,3′-pyrrolo[3,2-c]pyridin]-6′-yl)acetamide trifluoroacetate] | ≥ 1000 | 10 to 100 |  | 
CC(=O)Nc1cc2c(cn1)C1(CC1)CN2c1cc(C)cc(N2CCC(F)(F)C2)n1 [Example 184, N-(1′-(6-(3,3-difluoropyrrolidin-1-yl)-4-methylpyridin-2-yl)-1′,2′-dihydrospiro[cyclopropane-1,3′-pyrrolo[3,2-c]pyridin]-6′-yl)acetamide] | 100 to 1000 | 10 to 100 |  | 
COCC1CC(Oc2nc(C)cc(N3CC4(CC4)c4cnc(NC(C)=O)cc43)n2)C1 (stereo not shown) [Example 376, N-(1′-(2-(3-(methoxymethyl)cyclobutoxy)-6-methylpyrimidin-4-yl)-1′,2′-dihydrospiro[cyclopropane-1,3′-pyrrolo[3,2-c]pyridin]-6′-yl)acetamide] |  |  | ≥ 1000 | 100 to 1000
CC(=O)Nc1cc2c(cn1)C1(CC1)CN2c1cc(C)cc(N2CC(O)C(O)C2)n1 (stereo not shown) [Example 187, N-(1′-(6-(3,4-dihydroxypyrrolidin-1-yl)-4-methylpyridin-2-yl)-1′,2′-dihydrospiro[cyclopropane-1,3′-pyrrolo[3,2-c]pyridin]-6′-yl)acetamide] | ≥ 1000 | 100 to 1000 |  | 
